Assay results published in patent US12049460B2, “EGFR inhibitor compounds” (Recurium IP Holdings, LLC, priority 2016, dated 2024).

Key:
[1] = target: T1, EGFR (T790M/L858R) (Homo sapiens, UniProt P00533, L858R/T790M); assay: EGFR biochemical enzyme assay (CisBio HTRF KinEASE TK); settings: 30 μM ATP in substrate mix, 50 mins incubation
T1 construct: with amino acids 696-end containing the T790M and L858R mutations; GST (N); purchased Millipore
Procedure: (§1) The inhibitory activity of a compound against EGFR (T790M/L858R) were determined with CisBio HTRF (homogenous time-resolved fluorescence) KinEASE TK (#62TKOPEC). The enzyme reaction contained recombinant N-terminal GST-tagged human EGFR (T790M/L858R), which phosphorylates the HTRF tyrosine kinase biotinylated substrate.
(§2) The sequence of the substrate is proprietary to CisBio. Test compounds were serially diluted in 100% (v/v) DMSO before being acoustically dispensed from an Echo 555 (Labcyte) into black Corning 1536-well assay plates. Kinase activity assays were performed in a total reaction volume of 3 μL per well. A 1.5 μL enzyme reaction consisted of 1.6 nM EGFR ([…], L858R), 1 mM DTT, and 10 mM MgCl2. A 1.5 μL substrate mix consisted of 1 μM TK substrate, 30 μM ATP, 1 mM DTT, and 10 mM MgCl2. Following a 50 mins incubation, 3 μL of stop mix was added, which consisted of 250 nM Strep-XL665 and TK Ab-Cryptate diluted in kit detection buffer. The plates were incubated for 1 h before being read on Pherastar using standard HTRF settings. N-terminal GST-tagged recombinant human EGF receptor, with amino acids 696-end containing the T790M and L858R mutations, was obtained from Millipore.

[2] = target: T2, EGFR Del-19 (Homo sapiens, UniProt P00533); assay: EGFR biochemical enzyme assay, Del-19
T2 construct: as for the T790M/L858R enzyme of the same protocol
Procedure: [The source words this procedure for another variant and reports this variant under the same test.] as §1, §2

[3] = target: EGFR Wt (Homo sapiens, UniProt P00533); assay: EGFR biochemical enzyme assay, Wt
Procedure: [The source words this procedure for another variant and reports this variant under the same test.] as §1, §2

[4] = target: IGF1R (Homo sapiens, UniProt P08069); assay: Biochemical enzyme assay, IGF1R
[5] = target: INSR (Homo sapiens, UniProt P06213); assay: Biochemical enzyme assay, INSR
[6] = test system: H1975 (L858R/T790M); assay: EGFR cell proliferation assay (CellTiter-Glo), H1975; assay type: cell-based; settings: Homo sapiens, NCI-H1975, 3-5 days of compound treatment
Procedure: (§3) Cell Lines: A431 (WT), H1975 (L858R/T790M), PC9 (E746-A750 deletion): A431 cells were grown in DMEM (Invitrogen, Carlsbad, CA) supplemented with 10% FBS (HyClone, South Logan, UT) and 1% Penicillin-Streptomycin (P/S, Lonza, Walkersville, MD). H1975 cells were grown in RPMI 1640 (Invitrogen) supplemented with 10% FBS and 1% P/S. […] PC-9 cells were obtained from Japan. All cells were maintained and propagated as monolayer cultures at 37° C. in a humidified 5% CO2 incubator. All cells were cultured according to recommendations.
(§4) Cell proliferation was measured using the CellTiter-Glo® Luminescent Cell Viability Assay. The assay involved the addition of a single reagent (CellTiter-Glo® Reagent) directly to cells cultured in serum-supplemented medium. The assay used a one-step addition to induce cell lysis and generate a luminescent signal proportional to the amount of ATP present, which is directly proportional to the number of metabolically active cells present in culture.
(§5) Each compound evaluated was prepared as a DMSO stock solution (10 mM). Compounds were tested in duplicate on each plate, with an 11-point serial dilution curve (1:3 dilution). Compound treatment (50 μL) was added from the compound dilution plate to the cell plate. The highest compound concentration was 1 or 10 μM (final), with a 0.3% final DMSO (#D-5879, Sigma, St Louis, MO) concentration. Plates were then incubated at 37° C., 5% CO2. After 3-5 days of compound treatment, CellTiter-Glo® Reagent (#G7573, Promega, Madison, WI) was prepared in one of two ways. If thawing a frozen aliquot of CellTiter-Glo® Reagent, the aliquot was thawed and equilibrated to RT prior to use while keeping it protected from light. Alternatively, new bottles of CellTiter-Glo® Buffer and CellTiter-Glo® Substrate were thawed and equilibrated to RT prior to use. CellTiter-Glo® Buffer (100 mL) was transferred into the amber bottle containing CellTiter-Glo® Substrate to reconstitute the lyophilized enzyme/substrate mixture, forming the CellTiter-Glo® Reagent. The reconstituted reagent was mixed by gently inverting the contents to obtain a homogeneous solution, and went into solution easily in less than 1 min. Any unused reconstituted CellTiter-Glo® Reagent was immediately aliquoted and frozen at −20° C., and protected from light. Cell plates were equilibrated at RT for approximately 30 mins. An equi-volume amount of CellTiter-Glo® Reagent (100 μL) was added to each well. Plates were mixed for 2 mins on an orbital shaker to induce cell lysis, and then were allowed to incubate at RT for 10 mins to stabilize the luminescent signal. Luminescence was recorded using the PerkinElmer EnVision Excite Multilabel Reader used for endpoint reading for luminescence detection (Waltham, MA). Data was analyzed using a four-parameter fit in Microsoft Excel.

[7] = test system: PC9 (E746-A750 deletion); assay: EGFR cell proliferation assay (CellTiter-Glo), PC9; assay type: cell-based; settings: 3-5 days of compound treatment
Procedure: as §3, §4, §5

[8] = test system: A431 (WT); assay: EGFR cell proliferation assay (CellTiter-Glo), A431; assay type: cell-based; settings: Homo sapiens, A-431, 3-5 days of compound treatment
Procedure: as §3, §4, §5

[9] = test system: H1975; settings: read-out: H1975 Cell IC50; cited from earlier work
[10] = target: EGFR L858R (Homo sapiens, UniProt P00533, L858R); assay: EGFR biochemical enzyme assay, L858R
Procedure: [The source words this procedure for another variant and reports this variant under the same test.] as §1, §2

[11] = test system: hepatocytes; assay: Metabolite identification in hepatocytes, human; assay type: in vitro ADME; settings: 10 μM, 240 min, formation of AZ5104 via de-alkylation on the indole ring
Procedure: Suspended hepatocytes in enough incubation medium to yield ˜1.5×10^6 cells/mL. Pipetted 199 μL of viable hepatocytes or the boiled hepatocytes into each wells of a 96-well non-coated plate. Placed the plate in the incubator on an orbital shaker to allow the hepatocytes to warm for 10 minutes. Pipetted 1 μL of the 2 mM test compound(s) into respective wells of the 96-well non-coated plate to start the reaction with final concentration of 10 μM. Returned the plate to the incubator and placed on an orbital shaker. Incubated at 37° C., 5% CO2 and 90-95% relative humidity with shaking at 500 rpm on the shaker for 240 min. After incubation, transferred media from each well to a tube containing 400 μL cold methanol, washed the well with 200 μL cold methanol and then transferred the media to the corresponding tube. Centrifuged tubes for 10 minutes at 16,000 g. Aliquots of 200 μL of the supernatants were mixed with 200 μL of pure water and used for LC-MS/MS analysis. UHPLC-MS/MS analysis was conducted using a Dionex UltiMate 3000 UHPLC system (Thermo Fisher Scientific, USA) and Thermo Scientific Q Exactive (Thermo Fisher Scientific, USA) fitted with a HESI probe. […]

[12] = observed with AZD9291 treatment; cited from earlier work

Chain of EGFR L858R (P00533 25-1210 L858R): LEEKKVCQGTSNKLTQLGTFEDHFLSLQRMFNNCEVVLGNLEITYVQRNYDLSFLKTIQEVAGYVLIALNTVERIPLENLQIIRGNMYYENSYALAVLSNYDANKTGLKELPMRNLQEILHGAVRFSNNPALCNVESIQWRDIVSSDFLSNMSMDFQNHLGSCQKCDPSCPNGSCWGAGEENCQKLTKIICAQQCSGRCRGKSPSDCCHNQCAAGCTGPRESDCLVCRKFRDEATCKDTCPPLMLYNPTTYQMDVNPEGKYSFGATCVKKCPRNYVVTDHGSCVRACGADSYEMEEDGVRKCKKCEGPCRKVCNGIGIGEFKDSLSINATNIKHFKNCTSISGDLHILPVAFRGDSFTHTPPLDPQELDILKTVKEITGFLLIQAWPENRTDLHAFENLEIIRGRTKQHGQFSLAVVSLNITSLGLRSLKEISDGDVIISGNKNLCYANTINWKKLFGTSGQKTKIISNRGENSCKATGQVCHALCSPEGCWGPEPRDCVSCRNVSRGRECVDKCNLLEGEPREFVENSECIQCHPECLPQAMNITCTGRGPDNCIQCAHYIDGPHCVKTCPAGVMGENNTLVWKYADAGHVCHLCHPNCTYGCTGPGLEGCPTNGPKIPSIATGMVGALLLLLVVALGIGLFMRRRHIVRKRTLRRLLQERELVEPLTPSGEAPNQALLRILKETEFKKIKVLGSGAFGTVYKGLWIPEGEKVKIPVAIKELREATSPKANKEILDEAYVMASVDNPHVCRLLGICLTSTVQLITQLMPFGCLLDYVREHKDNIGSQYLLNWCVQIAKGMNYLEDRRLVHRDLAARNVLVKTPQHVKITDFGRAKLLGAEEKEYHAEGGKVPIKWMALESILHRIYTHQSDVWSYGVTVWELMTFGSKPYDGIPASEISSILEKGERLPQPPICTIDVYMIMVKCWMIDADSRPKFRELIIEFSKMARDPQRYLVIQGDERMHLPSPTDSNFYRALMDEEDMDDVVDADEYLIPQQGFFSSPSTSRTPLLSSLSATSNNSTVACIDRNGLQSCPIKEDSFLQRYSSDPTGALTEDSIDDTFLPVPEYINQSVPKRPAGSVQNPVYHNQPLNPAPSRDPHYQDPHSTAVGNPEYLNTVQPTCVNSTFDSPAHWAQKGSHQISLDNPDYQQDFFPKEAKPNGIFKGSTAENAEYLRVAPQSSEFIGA
Chain of INSR (P06213 28-1382, species assumed): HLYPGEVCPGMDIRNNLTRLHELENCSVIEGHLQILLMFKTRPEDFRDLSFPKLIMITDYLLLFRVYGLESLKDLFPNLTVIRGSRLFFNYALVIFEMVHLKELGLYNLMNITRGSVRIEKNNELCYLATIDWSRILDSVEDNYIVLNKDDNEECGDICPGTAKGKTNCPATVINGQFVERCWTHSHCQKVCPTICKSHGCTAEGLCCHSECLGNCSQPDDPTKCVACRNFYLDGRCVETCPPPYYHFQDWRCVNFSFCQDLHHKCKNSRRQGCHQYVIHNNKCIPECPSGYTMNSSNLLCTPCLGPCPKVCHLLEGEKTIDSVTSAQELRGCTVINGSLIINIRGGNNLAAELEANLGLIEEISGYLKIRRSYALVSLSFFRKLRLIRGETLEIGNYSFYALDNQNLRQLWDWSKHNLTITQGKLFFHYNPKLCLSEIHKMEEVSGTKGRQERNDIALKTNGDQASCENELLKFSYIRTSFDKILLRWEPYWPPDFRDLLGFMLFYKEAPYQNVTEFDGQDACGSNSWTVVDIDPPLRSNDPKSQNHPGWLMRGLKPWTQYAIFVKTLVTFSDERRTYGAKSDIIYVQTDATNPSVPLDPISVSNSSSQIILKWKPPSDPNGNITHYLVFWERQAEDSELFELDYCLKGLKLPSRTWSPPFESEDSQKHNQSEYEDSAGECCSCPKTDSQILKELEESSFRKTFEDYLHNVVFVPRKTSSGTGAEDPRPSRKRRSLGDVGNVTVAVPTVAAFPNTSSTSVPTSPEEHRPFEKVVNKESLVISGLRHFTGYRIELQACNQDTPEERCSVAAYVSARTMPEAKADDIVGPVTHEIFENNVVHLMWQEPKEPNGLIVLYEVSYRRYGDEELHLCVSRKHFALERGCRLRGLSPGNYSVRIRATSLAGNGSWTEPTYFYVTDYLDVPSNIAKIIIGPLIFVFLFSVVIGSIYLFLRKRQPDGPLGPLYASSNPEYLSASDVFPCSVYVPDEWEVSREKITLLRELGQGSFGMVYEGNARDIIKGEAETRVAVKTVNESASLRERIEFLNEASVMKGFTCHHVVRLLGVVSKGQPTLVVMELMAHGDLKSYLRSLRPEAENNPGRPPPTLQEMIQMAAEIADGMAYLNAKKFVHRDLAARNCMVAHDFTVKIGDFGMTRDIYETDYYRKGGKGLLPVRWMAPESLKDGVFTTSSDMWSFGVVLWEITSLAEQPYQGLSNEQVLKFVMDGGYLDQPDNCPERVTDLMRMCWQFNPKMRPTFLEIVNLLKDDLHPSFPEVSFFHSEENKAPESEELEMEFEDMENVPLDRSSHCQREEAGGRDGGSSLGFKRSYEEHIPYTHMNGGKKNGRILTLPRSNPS
Chain of IGF1R (P08069 31-1367, species assumed): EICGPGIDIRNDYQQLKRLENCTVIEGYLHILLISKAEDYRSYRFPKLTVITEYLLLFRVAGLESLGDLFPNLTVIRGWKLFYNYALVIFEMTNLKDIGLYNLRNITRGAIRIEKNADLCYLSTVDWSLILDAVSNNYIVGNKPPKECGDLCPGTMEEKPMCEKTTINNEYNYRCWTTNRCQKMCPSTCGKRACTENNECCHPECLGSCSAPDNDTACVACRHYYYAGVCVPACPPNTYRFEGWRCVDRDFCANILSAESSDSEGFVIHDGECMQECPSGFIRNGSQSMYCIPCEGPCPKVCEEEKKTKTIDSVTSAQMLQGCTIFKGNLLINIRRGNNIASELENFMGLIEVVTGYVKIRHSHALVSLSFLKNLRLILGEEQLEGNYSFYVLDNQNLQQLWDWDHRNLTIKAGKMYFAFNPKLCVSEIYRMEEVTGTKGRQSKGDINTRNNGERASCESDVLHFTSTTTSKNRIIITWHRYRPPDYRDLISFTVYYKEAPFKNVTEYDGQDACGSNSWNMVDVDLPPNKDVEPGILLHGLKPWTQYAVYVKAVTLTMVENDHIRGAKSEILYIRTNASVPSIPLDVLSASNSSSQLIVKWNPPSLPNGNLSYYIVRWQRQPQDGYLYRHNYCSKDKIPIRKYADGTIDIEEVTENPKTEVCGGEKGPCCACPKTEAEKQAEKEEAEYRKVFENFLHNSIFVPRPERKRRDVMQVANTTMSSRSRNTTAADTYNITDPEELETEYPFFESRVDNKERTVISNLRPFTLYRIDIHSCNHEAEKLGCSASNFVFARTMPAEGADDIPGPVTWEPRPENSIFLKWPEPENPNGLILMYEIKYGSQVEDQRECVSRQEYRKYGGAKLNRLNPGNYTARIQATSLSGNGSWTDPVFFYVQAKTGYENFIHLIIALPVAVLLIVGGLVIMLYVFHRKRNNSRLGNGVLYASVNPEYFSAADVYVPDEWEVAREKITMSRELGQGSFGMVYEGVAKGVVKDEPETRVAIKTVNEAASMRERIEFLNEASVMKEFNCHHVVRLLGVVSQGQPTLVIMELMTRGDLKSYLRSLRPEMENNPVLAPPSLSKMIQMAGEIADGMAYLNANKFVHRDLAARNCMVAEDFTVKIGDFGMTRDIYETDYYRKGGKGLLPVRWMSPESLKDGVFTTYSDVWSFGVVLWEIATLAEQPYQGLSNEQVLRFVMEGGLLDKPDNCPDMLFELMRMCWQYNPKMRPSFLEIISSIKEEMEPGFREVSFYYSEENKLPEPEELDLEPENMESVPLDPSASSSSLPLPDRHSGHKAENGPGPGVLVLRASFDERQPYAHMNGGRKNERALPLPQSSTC
T1 sequence (P00533 696-1210 T790M/L858R): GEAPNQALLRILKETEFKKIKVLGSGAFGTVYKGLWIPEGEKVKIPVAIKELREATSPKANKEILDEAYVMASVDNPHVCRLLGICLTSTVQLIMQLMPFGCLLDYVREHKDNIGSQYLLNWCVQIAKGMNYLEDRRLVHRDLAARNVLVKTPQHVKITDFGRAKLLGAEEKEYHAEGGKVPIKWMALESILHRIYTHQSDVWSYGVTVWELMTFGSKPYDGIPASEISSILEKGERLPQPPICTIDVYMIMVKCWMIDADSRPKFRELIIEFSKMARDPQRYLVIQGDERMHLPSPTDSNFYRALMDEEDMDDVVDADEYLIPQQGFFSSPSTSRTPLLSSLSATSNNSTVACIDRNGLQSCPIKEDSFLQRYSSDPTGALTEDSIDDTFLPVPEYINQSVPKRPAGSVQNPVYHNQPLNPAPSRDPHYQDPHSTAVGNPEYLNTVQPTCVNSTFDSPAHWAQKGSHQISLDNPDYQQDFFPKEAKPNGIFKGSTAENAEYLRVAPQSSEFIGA

Row | SMILES | IC50 [1] [nM] | IC50 [2] [nM] | IC50 [3] [nM] | IC50 [4] [nM] | IC50 [5] [nM] | IC50 [6] [nM] | IC50 [7] [nM] | IC50 [8] [nM] | IC50 [9] [nM] | IC50 [10] [nM] | Metabolite AZ5104, Human [11] | clinical side effect: diarrhea [12] [%] | clinical side effect: rash [12] [%]
1 | C=CC(=O)Nc1cc(Nc2nccc(-c3nn(C45CC(C4)C5)c4ccccc34)n2)c(OC)cc1N(C)CCN(C)C [Example 5, N-(5-((4-(1-(bicyclo[1.1.1]pentan-1-yl)-1H-indazol-3-yl)pyrimidin-2-yl)amino)-2-((2-(dimethylamino)ethyl)(methyl)amino)-4-methoxyphenyl)acrylamide] | ≤ 10 | ≤ 10 | ≤ 10 | ≥ 100 | ≥ 100 | ≤ 50 | 50 to 300 | ≥ 300 |  |  |  |  | 
2 | C=CC(=O)Nc1cc(Nc2nccc(-c3cn(C)c4ccccc34)n2)c(OC)cc1N(C)C12CC(CN(C)C)(C1)C2 [Example 4, N-(2-((3-((dimethylamino)methyl)bicyclo[1.1.1]pentan-1-yl)(methyl)amino)-4-methoxy-5-((4-(1-methyl-1H-indol-3-yl)pyrimidin-2-yl)amino)phenyl)acrylamide] | ≥ 100 | ≥ 100 | 10 to 100 | ≥ 100 | ≥ 100 | ≥ 300 | ≥ 300 | ≥ 300 |  |  |  |  | 
3 | C=CC(=O)Nc1cc(Nc2nccc(-c3c[nH]c4ccccc34)n2)c(OC)cc1N(C)CCN(C)C [AZ5104] |  |  |  |  |  |  |  |  | 2 |  |  |  | 
4 | C=CC(=O)Nc1cc(Nc2nccc(-c3cn(C45CC(C4)C5)c4ccccc34)n2)c(OC)cc1N(C)CCN(C)C [Example 1, N-(5-((4-(1-(bicyclo[1.1.1]pentan-1-yl)-1H-indol-3-yl)pyrimidin-2-yl)amino)-2-((2-(dimethylamino)ethyl)(methyl)amino)-4-methoxyphenyl)acrylamide] | ≤ 10 | ≤ 10 | ≤ 10 | ≥ 100 | ≥ 100 | ≤ 50 | ≤ 50 | ≥ 300 |  | ≤ 10 | did not lead to the formation |  | 
5 | C=CC(=O)Nc1cc(Nc2nccc(-c3cn(C45CC(F)(C4)C5)c4ccccc34)n2)c(OC)cc1N(C)CCN(C)C [Example 7, N-(2-((2-(dimethylamino)ethyl)(methyl)amino)-5-((4-(1-(3-fluorobicyclo[1.1.1]pentan-1-yl)-1H-indol-3-yl)pyrimidin-2-yl)amino)-4-methoxyphenyl)acrylamide] | ≤ 10 | ≤ 10 | ≤ 10 |  |  | ≤ 50 | ≥ 300 | ≥ 300 |  | ≤ 10 |  |  | 
6 | C=CC(=O)Nc1cc(Nc2nccc(-c3cn(C)c4ccccc34)n2)c(OC)cc1N(C)C12CC(N(C)C)(C1)C2 [Example 6, N-(2-((3-(dimethylamino)bicyclo[1.1.1]pentan-1-yl)(methyl)amino)-4-methoxy-5-((4-(1-methyl-1H-indol-3-yl)pyrimidin-2-yl)amino)phenyl)acrylamide] | ≤ 10 | ≥ 100 | ≥ 100 | ≥ 100 | ≥ 100 | ≥ 300 | ≥ 300 | ≥ 300 |  | ≥ 100 |  |  | 
7 | C=CC(=O)Nc1cc(Nc2nccc(-c3cn(C45CC(C4)C5)c4ccccc34)n2)c(OC)cc1N(C)CCNC [Example 8, N-(5-((4-(1-(Bicyclo[1.1.1]pentan-1-yl)-1H-indol-3-yl)pyrimidin-2-yl)amino)-4-methoxy-2-(methyl(2-(methylamino)ethyl)amino)phenyl)acrylamide] | ≤ 10 | ≤ 10 | 10 to 100 | ≥ 100 | ≥ 100 | ≤ 50 | ≤ 50 | ≥ 300 |  |  |  |  | 
8 | C=CC(=O)Nc1cc(Nc2nccc(-c3cn(C45CC(C#N)(C4)C5)c4ccccc34)n2)c(OC)cc1N(C)CCN(C)C [Example 2, N-(5-((4-(1-(3-cyanobicyclo[1.1.1]pentan-1-yl)-1H-indol-3-yl)pyrimidin-2-yl)amino)-2-((2-(dimethylamino)ethyl)(methyl)amino)-4-methoxyphenyl)acrylamide] | ≤ 10 | ≤ 10 | ≤ 10 | ≥ 100 | ≥ 100 | 50 to 300 | 50 to 300 | ≥ 300 |  |  |  |  | 
9 | C=CC(=O)Nc1cc(Nc2ncc(C#N)c(-c3cn(C45CC(C4)C5)c4ccccc34)n2)c(OC)cc1N(C)CCN(C)C [Example 3, N-(5-((4-(1-(bicyclo[1.1.1]pentan-1-yl)-1H-indol-3-yl)-5-cyanopyrimidin-2-yl)amino)-2-((2-(dimethylamino)ethyl)(methyl)amino)-4-methoxyphenyl)acrylamide] | ≤ 10 | ≤ 10 | ≤ 10 | ≥ 100 | ≥ 100 | ≤ 50 | ≤ 50 | 50 to 300 |  |  |  |  | 
10 | C=CC(=O)Nc1cc(Nc2nccc(-c3cn(C)c4ccccc34)n2)c(OC)cc1N(C)CCN(C)C [AZD9291] |  |  |  |  |  |  |  |  | 15 |  | Observed | 42 | 41
